Data on three compounds can be found in patent publication US9247759B2, “Identification of human T2R receptors that respond to bitter compounds that elicit the bitter taste in compositions, and the use thereof in assays to identify compounds that inhibit (block) bitter taste in compositions and use thereof” (SENOMYX, INC., priority 2007, dated 2016).

For one test, the system named is hT2R44. As to the kind of experiment: hT2R panel inhibition, transient HEK293 G16g44, agonist Denatonium 0.5 μM. Type of test: cell-based, human. To be noted: compound at 25 μM; receptor activated to EC80 with the corresponding agonist. The essentials:
(§1)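 The test compound's selectivity was profiled by challenging each transiently expressed human T2R with its activating bitter ligand at an EC80 concentration, inhibition being the reduction of receptor signalling it produced.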

The target in another test is hT2R7 (Homo sapiens (Human), UniProt Q9NYW3). As to the kind of experiment: hT2R panel inhibition, transient HEK293 G16g44, agonist Chloroquine pH6.5 10 mM. Type of test: cell-based. To be noted: HEK293, compound at 25 μM; receptor activated to EC80 with the corresponding agonist; read-out: screening result against bitter receptor 7. A digest of the protocol: as §1
Sequence of hT2R7 (Q9NYW3 whole entry): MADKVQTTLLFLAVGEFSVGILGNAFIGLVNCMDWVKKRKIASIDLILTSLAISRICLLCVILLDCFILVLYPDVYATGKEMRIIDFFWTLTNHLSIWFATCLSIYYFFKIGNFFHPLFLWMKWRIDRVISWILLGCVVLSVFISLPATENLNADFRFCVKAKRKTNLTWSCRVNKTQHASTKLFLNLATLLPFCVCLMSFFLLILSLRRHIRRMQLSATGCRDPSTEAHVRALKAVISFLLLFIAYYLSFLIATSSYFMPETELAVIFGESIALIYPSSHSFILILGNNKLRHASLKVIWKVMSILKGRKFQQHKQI
A further test relates to hT2R55. As to the kind of experiment: hT2R panel inhibition, transient HEK293 G16g44, agonist Cinchonine 150 μM. In kind it is cell-based, human. To be noted: compound at 25 μM; receptor activated to EC80 with the corresponding agonist. A digest of the protocol:
as §1

In test [1] the target is T1, hT2R14 (Homo sapiens (Human), UniProt Q9NYV8). As to the kind of experiment: hT2R panel inhibition, transient HEK293 G16g44, agonist Aristolochic Acid 2 μM. Type of test: cell-based. As to conditions: HEK293, compound at 25 μM; receptor activated to EC80 with the corresponding agonist; read-out: screening result against bitter receptor 14. The essentials:
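Each hT2R was transiently transfected into HEK293 cells stably expressing G16g44 and assayed functionally for inhibition of agonist response. Agonists were applied at EC80: andrographolide at 0.5 mM for hT2R8 and aristolochic acid at 2 μM for hT2R14.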

In the next test the target is hT2R51 (Homo sapiens (Human), UniProt P59533). As to the kind of experiment: hT2R panel inhibition, transient HEK293 G16g44, agonist Prop 2.5 μM. Type of test: cell-based. To be noted: HEK293, compound at 25 μM; receptor activated to EC80 with the corresponding agonist; read-out: screening result against bitter receptor 51. A digest of the protocol:
as §1

The next test concerns hT2R67. As to the kind of experiment: hT2R panel inhibition, transient HEK293 G16g44, agonist Andrographolide 5 μM. To be noted: compound at 25 μM; receptor activated to EC80 with the corresponding agonist. Type of test: cell-based, human. The essentials:
as §1

Another test has as its system hT2R54. As to the kind of experiment: hT2R panel inhibition, transient HEK293 G16g44, agonist Ranitidine 5 mM. To be noted: compound at 25 μM; receptor activated to EC80 with the corresponding agonist. Type of test: cell-based, human. A digest of the protocol:
as §1

The target in the next test is hT2R16 (Homo sapiens (Human), UniProt Q9NYV7). As to the kind of experiment: hT2R panel inhibition, transient HEK293 G16g44, agonist Salicin 1 mM. To be noted: HEK293, compound at 25 μM; receptor activated to EC80 with the corresponding agonist; read-out: screening result against bitter receptor 16. In kind it is cell-based. The essentials:
as §1

A further test has as its target hT2R5 (Homo sapiens (Human), UniProt Q9NYW4). As to the kind of experiment: hT2R panel inhibition, transient HEK293 G16g44, agonist Picoline 10 mM. In kind it is cell-based. As to conditions: HEK293, compound at 25 μM; receptor activated to EC80 with the corresponding agonist; read-out: screening result against bitter receptor 5. The essentials:
as §1

The next test relates to hT2R63. As to the kind of experiment: hT2R panel inhibition, transient HEK293 G16g44, agonist Caffeine 1 mM or Andrographolide 100 μM. In kind it is cell-based, human. As to conditions: compound at 25 μM; receptor activated to EC80 with the corresponding agonist. A digest of the protocol: as §1
For another test, the system named is hT2R65. As to the kind of experiment: hT2R panel inhibition, transient HEK293 G16g44, agonist Oleuropein 1 mM. In kind it is cell-based, human. As to conditions: compound at 25 μM; receptor activated to EC80 with the corresponding agonist. The essentials: as §1
Another test concerns the target hT2R9 (Homo sapiens (Human), UniProt Q9NYW1). As to the kind of experiment: hT2R panel inhibition, transient HEK293 G16g44, agonist Ofloxacin 1 mM. As to conditions: HEK293, compound at 25 μM; receptor activated to EC80 with the corresponding agonist; read-out: screening result against bitter receptor 9. In kind it is cell-based. As to the method:
Specifically, in order to evaluate the inhibitory selectivity of the Compound C compound, this compound was tested against 22 human T2Rs which were deorphaned by Senomyx. These receptors and the bitter ligands that activate these human T2Rs are reported in earlier patent applications which are incorporated by reference herein. These 22 human T2Rs are hT2R1, 3, 4, 5, 7, 8, 9, 10, 13, 14, 16, 44, 51, 54, 55, 61, 63, 64, 65, 67, 71 and 75. The amino acid and nucleic acid sequences of all of these T2Rs may be found in these earlier patent applications. These human T2Rs were each individually transiently transfected into HEK293 cells that stably express the promiscuous G protein G16g44 and functional assays were effected using these receptors as disclosed in these same patent applications. […] The ligands were used at EC80 concentration levels. The list of bitter ligands utilized and the tested ligand concentrations are contained in Table 5 of this example.
Relating to the foregoing, FIG. 5 contains experimental results wherein Compound C was tested with different agonist compounds. The inhibition activity is represented by the reduction of receptor activity in the presence of Compound C. […] These 13 hT2Rs are hT2R3, 7, 10, 14, 16, 44, 51, 55, 61, 63, 64, 65, and 71.

For test [2], the target named is T1, hT2R14. As to the kind of experiment: hT2R14 antagonist high-throughput FLIPR assay, stable cell line with G16g44, agonist aristolochic acid. As to conditions: read-out: IC50 on hT2R14 bitter receptor. Type of test: cell-based. The essentials: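 HEK293 cells stably expressing hT2R14 with chimeric G16g44 were stimulated with aristolochic acid (3 μM), giving 70-80% of maximal receptor activity. Test compounds were added together with the agonist, and antagonism was read as fluorescent calcium signal on FLIPR.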

A further test addresses hT2R3 (Homo sapiens (Human), UniProt Q9NYW6). As to the kind of experiment: hT2R panel inhibition, transient HEK293 G16g44, agonist Chloroquine pH6.5 50 μM. Type of test: cell-based. As to conditions: HEK293, compound at 25 μM; receptor activated to EC80 with the corresponding agonist; read-out: screening result against bitter receptor 3. The essentials:
as §1

For another test, the target named is hT2R10 (Homo sapiens (Human), UniProt Q9NYW0). As to the kind of experiment: hT2R panel inhibition, transient HEK293 G16g44, agonist Strychnine 50 μM. Type of test: cell-based. As to conditions: HEK293, read-out: screening result against bitter receptor 10, compound at 25 μM; receptor activated to EC80 with the corresponding agonist.
Sequence of hT2R10 (Q9NYW0 whole entry): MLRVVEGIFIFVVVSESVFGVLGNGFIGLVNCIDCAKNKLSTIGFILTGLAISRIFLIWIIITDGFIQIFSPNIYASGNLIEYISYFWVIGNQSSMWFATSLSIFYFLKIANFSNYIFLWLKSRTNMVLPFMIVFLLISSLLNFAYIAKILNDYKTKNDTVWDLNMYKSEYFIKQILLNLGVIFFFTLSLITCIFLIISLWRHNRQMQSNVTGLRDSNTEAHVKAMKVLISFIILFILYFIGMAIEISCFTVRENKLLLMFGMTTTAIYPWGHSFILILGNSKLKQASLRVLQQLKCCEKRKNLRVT
In a further test the target is hT2R71 (Homo sapiens (Human), UniProt P59536). As to the kind of experiment: hT2R panel inhibition, transient HEK293 G16g44, agonist Picric Acid 10 μM. Type of test: cell-based. As to conditions: HEK293, compound at 25 μM; receptor activated to EC80 with the corresponding agonist; read-out: screening result against bitter receptor 71. A digest of the protocol: as §1
Sequence of hT2R71 (P59536 whole entry): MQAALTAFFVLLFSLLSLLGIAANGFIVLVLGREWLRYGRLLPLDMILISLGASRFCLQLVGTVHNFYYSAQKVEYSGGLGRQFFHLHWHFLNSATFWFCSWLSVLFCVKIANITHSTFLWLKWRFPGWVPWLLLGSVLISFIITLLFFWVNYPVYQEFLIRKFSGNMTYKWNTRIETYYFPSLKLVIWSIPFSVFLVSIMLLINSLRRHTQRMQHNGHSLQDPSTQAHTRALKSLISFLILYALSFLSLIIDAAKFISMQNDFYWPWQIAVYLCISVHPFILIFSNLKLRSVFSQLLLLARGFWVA

The target of the next test is hT2R61 (Homo sapiens (Human), UniProt P59537). As to the kind of experiment: hT2R panel inhibition, transient HEK293 G16g44, agonist Aristolochic Acid 25 nM. Type of test: cell-based. As to conditions: HEK293, compound at 25 μM; receptor activated to EC80 with the corresponding agonist; read-out: screening result against bitter receptor 61. The essentials: as §1
Sequence of hT2R61 (P59537 whole entry): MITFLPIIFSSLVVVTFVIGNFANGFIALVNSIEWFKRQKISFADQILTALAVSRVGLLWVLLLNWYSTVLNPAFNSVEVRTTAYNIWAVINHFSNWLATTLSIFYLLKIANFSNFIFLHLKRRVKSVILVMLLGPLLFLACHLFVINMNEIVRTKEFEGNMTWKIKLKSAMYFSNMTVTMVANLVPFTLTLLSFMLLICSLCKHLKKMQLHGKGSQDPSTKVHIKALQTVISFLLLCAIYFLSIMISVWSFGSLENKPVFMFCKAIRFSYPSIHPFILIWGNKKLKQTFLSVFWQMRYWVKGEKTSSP
A further test deals with hT2R64 (Homo sapiens (Human), UniProt P59538). As to the kind of experiment: hT2R panel inhibition, transient HEK293 G16g44, agonist Aristolochic Acid 1 μM. In kind it is cell-based. As to conditions: HEK293, compound at 25 μM; receptor activated to EC80 with the corresponding agonist; read-out: screening result against bitter receptor 64. The essentials: as §1
Sequence of hT2R64 (P59538 whole entry): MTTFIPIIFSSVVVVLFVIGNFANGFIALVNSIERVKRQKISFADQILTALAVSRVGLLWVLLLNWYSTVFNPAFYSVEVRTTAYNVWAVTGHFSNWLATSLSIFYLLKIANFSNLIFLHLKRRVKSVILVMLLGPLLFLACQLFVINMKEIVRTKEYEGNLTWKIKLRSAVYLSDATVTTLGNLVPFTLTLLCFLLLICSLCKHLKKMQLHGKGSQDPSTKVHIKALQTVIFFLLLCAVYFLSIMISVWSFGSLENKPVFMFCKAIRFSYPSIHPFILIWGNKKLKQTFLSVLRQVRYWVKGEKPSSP
In a further test the target is hT2R75 (Homo sapiens (Human), UniProt P59540). As to the kind of experiment: hT2R panel inhibition, transient HEK293 G16g44, agonist Strychnine 1 μM. Type of test: cell-based. As to conditions: HEK293, read-out: screening result against bitter receptor 75, compound at 25 μM; receptor activated to EC80 with the corresponding agonist.
Sequence of hT2R75 (P59540 whole entry): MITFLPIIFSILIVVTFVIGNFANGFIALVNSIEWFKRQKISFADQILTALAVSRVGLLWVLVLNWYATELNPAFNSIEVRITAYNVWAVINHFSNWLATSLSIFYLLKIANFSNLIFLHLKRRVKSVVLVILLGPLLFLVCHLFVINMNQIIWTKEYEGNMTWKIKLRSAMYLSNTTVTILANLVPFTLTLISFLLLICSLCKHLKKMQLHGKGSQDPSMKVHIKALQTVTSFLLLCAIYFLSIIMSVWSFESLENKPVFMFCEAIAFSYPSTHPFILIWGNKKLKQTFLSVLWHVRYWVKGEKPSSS

Sequence of hT2R9 (Q9NYW1 whole entry): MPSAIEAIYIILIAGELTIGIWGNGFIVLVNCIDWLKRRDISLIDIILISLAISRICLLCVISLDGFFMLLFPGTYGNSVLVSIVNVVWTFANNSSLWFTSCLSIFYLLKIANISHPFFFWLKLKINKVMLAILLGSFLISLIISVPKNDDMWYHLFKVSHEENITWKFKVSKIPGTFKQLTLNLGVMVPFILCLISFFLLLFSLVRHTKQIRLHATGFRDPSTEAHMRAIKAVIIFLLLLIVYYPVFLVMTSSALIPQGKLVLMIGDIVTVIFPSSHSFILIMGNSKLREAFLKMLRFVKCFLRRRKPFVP
Sequence of hT2R3 (Q9NYW6 whole entry): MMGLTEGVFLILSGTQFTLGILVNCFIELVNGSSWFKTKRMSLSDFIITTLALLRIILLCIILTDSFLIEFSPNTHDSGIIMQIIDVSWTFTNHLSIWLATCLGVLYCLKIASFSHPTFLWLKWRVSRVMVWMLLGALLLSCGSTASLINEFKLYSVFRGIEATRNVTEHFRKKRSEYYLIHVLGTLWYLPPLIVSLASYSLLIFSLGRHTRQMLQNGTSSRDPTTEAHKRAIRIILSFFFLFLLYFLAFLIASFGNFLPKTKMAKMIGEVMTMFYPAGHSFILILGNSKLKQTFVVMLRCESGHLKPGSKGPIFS
Sequence of hT2R16 (Q9NYV7 whole entry): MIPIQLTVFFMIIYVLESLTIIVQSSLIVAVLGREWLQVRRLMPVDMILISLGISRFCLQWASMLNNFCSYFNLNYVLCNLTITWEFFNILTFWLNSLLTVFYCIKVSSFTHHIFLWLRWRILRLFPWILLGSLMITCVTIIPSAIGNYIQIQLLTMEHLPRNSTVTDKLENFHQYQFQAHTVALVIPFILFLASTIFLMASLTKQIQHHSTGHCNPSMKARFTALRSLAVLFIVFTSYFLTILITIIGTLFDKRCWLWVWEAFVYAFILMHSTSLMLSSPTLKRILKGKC
Sequence of hT2R5 (Q9NYW4 whole entry): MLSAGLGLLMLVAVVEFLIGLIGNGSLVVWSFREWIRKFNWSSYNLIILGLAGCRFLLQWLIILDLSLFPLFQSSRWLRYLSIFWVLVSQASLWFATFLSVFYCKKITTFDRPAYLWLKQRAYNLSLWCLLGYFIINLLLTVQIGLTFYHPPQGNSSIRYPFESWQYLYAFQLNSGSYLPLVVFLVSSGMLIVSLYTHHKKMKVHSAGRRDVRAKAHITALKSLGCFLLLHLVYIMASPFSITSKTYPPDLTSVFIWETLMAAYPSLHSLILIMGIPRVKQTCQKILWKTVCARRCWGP
Sequence of hT2R51 (P59533 whole entry): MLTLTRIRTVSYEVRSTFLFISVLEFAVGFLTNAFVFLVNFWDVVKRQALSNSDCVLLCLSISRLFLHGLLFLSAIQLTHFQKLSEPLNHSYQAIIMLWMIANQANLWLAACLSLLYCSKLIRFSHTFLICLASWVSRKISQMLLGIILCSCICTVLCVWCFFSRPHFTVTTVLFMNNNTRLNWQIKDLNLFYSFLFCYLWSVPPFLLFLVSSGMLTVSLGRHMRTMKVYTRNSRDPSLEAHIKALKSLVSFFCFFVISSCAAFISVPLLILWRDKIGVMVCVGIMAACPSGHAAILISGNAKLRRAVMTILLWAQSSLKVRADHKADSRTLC
T1 sequence (Q9NYV8 whole entry): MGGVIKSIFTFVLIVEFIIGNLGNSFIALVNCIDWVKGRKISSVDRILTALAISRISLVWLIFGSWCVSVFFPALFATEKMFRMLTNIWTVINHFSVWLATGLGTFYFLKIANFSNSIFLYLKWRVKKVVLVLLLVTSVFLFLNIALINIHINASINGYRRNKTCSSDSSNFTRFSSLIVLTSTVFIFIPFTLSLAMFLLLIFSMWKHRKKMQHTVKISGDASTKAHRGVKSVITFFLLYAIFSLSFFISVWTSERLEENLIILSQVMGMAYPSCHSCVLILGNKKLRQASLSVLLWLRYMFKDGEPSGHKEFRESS

As usually defined, the IC50 is the concentration needed to halve the response being measured. With `COc1ccc(CN(Cc2cccc(OC)c2)S(=O)(=O)c2ccc(C(=O)O)cc2)cc1` [Example 5-34, 4-(N-(3-methoxybenzyl)-N-(4-methoxybenzyl)sulfamoyl)-benzoic acid], in the test on hT2R44, the “screening result against bitter receptor 44” value is recorded as “++ (40% to 60% inhibition = ++)”. Moreover, the inhibition at 25 µM at hT2R7 was 20 to 40%; at hT2R14 [1], over 80%; on hT2R51, 20 to 40%; at hT2R16 it was 20 to 40%; on hT2R5 it was 40 to 60%; on hT2R9, 20 to 40%. In addition, the inhibition at 25 µM is 40 to 60% at hT2R3; 40 to 60% at hT2R10; 60 to 80% at hT2R71; over 80% on hT2R61; 60 to 80% at hT2R64. In the test on hT2R55, the “screening result against bitter receptor 55” value was “++++ (80% or greater inhibition = ++++)”. Further, the “screening result against bitter receptor 67” value in the test on hT2R67 is “+ (20% to 40% inhibition = +)”. For the same compound, the “screening result against bitter receptor 54” value in the test with hT2R54 is given as “+++ (60% to 80% inhibition = +++)”. The “screening result against bitter receptor 63” value with hT2R63 is recorded as “++++ (80% or greater inhibition = ++++)”. In the test on hT2R65, the “screening result against bitter receptor 65” value is reported as “++ (40% to 60% inhibition = ++)”. In addition, at hT2R14 [2], the IC50 worked out at 2.46 µM.

As for `O=C(O)c1ccc(S(=O)(=O)N(Cc2ccccc2)Cc2ccccc2F)cc1` [Example 5-72, 4-(N-benzyl-N-(2-fluorobenzyl)sulfamoyl)benzoic acid], the “screening result against bitter receptor 44” value with hT2R44 was “+ (20% to 40% inhibition = +)”. Further, the inhibition at 25 µM was 40 to 60% at hT2R75; over 80% at hT2R14 [1]; 20 to 40% on hT2R51; 20 to 40% on hT2R16; 40 to 60% at hT2R5; 20 to 40% at hT2R9. Besides, the inhibition at 25 µM lay in the range of 20 to 40% at hT2R3; 20 to 40% at hT2R10; 20 to 40% on hT2R71; 60 to 80% on hT2R61; 20 to 40% at hT2R64. In addition, the “screening result against bitter receptor 55” value with hT2R55 was “++ (40% to 60% inhibition = ++)”. Further, in the test with hT2R67, the “screening result against bitter receptor 67” value is listed as “+ (20% to 40% inhibition = +)”. Also, the “screening result against bitter receptor 54” value in the test with hT2R54 is reported as “+ (20% to 40% inhibition = +)”. In addition, in the test on hT2R63, the “screening result against bitter receptor 63” value is recorded as “++++ (80% or greater inhibition = ++++)”. The “screening result against bitter receptor 65” value in the test on hT2R65 is reported as “+ (20% to 40% inhibition = +)”.

Consider `Cc1ccccc1CN(Cc1ccccc1)S(=O)(=O)c1ccc(C(=O)O)cc1` [Example 5-80, 4-(N-benzyl-N-(2-methylbenzyl)sulfamoyl)benzoic acid], for which the “screening result against bitter receptor 44” value in the test on hT2R44 is reported as “+ (20% to 40% inhibition = +)”. Also, the inhibition at 25 µM on hT2R75 is 20 to 40%; on hT2R7, 20 to 40%; on hT2R14 [1] it was over 80%; at hT2R51, 40 to 60%; on hT2R16, 20 to 40%; at hT2R5, 20 to 40%. Further, the inhibition at 25 µM on hT2R9 fell in the range of 20 to 40%; at hT2R3, 40 to 60%; at hT2R10 it was 20 to 40%; on hT2R71, 60 to 80%; at hT2R61 it was 60 to 80%; on hT2R64, 60 to 80%. In addition, in the test on hT2R55, the “screening result against bitter receptor 55” value is recorded as “+++ (60% to 80% inhibition = +++)”. In addition, the “screening result against bitter receptor 67” value in the test on hT2R67 is given as “+ (20% to 40% inhibition = +)”. Also, the “screening result against bitter receptor 54” value in the test on hT2R54 is listed as “+ (20% to 40% inhibition = +)”. Also, the “screening result against bitter receptor 63” value with hT2R63 is given as “++++ (80% or greater inhibition = ++++)”. Moreover, in the test with hT2R65, the “screening result against bitter receptor 65” value was “++ (40% to 60% inhibition = ++)”.
